{"source": "patent US6596284B1", "about": "“Treating eczema with a combination of isotonic saline ocean® and nasal mast cell stabilizers” (priority 2002, dated 2003)", "experiment": "Topical application of cromolyn sodium in OCEAN at the affected site in twenty adult subjects with atopic eczema", "assay_type": "in vivo, human", "conditions": "300 mg/45 ml OCEAN (0.67%), applied every 4 to 6 hours at the affected site, after two weeks", "protocol": "A group of twenty adult subjects suffering from atopic eczema were asked to apply cromolyn sodium (at a concentration of 300 mg/45 ml OCEAN® giving a concentration of 0.67%) every 4 to 6 hours at the affected site, and instructed to rub the solution gently into the lesion.", "note": "Counter-ions that a name gives are not always drawn."}
{"smiles": "O=C(O)c1cc(=O)c2c(OCC(O)COc3cccc4oc(C(=O)O)cc(=O)c34)cccc2o1", "note": "[cromolyn sodium, disodium salt of 1,3-bis-(2-carboxy-chromone-5″yloxy)2-hydroxy propane]", "values": [{"measurement": "subjects who experienced relief from the symptoms", "result": "19 of the 20"}]}
